# Measured values: ChEMBL document CHEMBL1201862, “PubChem BioAssay data set” (2004)
#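 Test compounds were applied to cells in 96-well plates for 48 hours at 5 doses. GI50 is the concentration that inhibits growth by half.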 Activity calls are given as the source filed them. No stated cut-off is given here; in the data, active = GI50 up to about 1.1 µM and inactive = higher.
# Legend:
# Assay in all cases: NCI tumour cell line growth inhibition, 48 h
# OVCAR-5 = tested on: OVCAR-5
# CCRF-CEM = tested on: CCRF-CEM
# CAKI-1 = tested on: CAKI-1
# HT-29 = tested on: HT-29
# MDA-MB-231 = tested on: MDA-MB-231
# MDA-N = tested on: MDA-N
# SK-MEL-2 = tested on: SK-MEL-2
# SK-MEL-28 = tested on: SK-MEL-28
# U-251 = tested on: U-251
# SW-620 = tested on: SW-620
# HL-60 = tested on: HL-60
# SK-OV-3 = tested on: SK-OV-3
# UACC-257 = tested on: UACC-257
# A498 = tested on: A498
# MOLT-4 = tested on: MOLT-4
# PC-3 = tested on: PC-3
# SF-295 = tested on: SF-295
# T47D = tested on: T47D
# SNB-75 = tested on: SNB-75
# OVCAR-8 = tested on: OVCAR-8
SMILES,GI50 (OVCAR-5),GI50 (CCRF-CEM),GI50 (CAKI-1),GI50 (HT-29),GI50 (MDA-MB-231),GI50 (MDA-N),GI50 (SK-MEL-2),GI50 (SK-MEL-28),GI50 (U-251),GI50 (SW-620),GI50 (HL-60),GI50 (SK-OV-3),GI50 (UACC-257),GI50 (A498),GI50 (MOLT-4),GI50 (PC-3),GI50 (SF-295),GI50 (T47D),GI50 (SNB-75),GI50 (OVCAR-8)
c1ccc(NCCSc2nc3ccccc3s2)cc1,54 µM (inactive),14.8 µM (inactive),93.1 µM (inactive),30.5 µM (inactive),29.4 µM (inactive),36.9 µM (inactive),30.8 µM (inactive),> 100 µM (inactive),52.8 µM (inactive),58.3 µM (inactive),32.1 µM (inactive),> 100 µM (inactive),22.1 µM (inactive),26.5 µM (inactive),24.9 µM (inactive),55.2 µM (inactive),> 100 µM (inactive),36.2 µM (inactive),> 100 µM (inactive),79.1 µM (inactive)
CC1=CC2C(O1)C1C(=O)C=CC(=O)C1=CC2[N+](=O)[O-] (stereo not given),24.5 µM (inactive),3.85 µM (inactive),5.01 µM (inactive),16.5 µM (inactive),19.8 µM (inactive),23.1 µM (inactive),23.3 µM (inactive),27.4 µM (inactive),18.5 µM (inactive),3.61 µM (inactive),8.11 µM (inactive),> 100 µM (inactive),16.9 µM (inactive),22.9 µM (inactive),3.48 µM (inactive),19.9 µM (inactive),18.7 µM (inactive),3.85 µM (inactive),26.7 µM (inactive),22.5 µM (inactive)
CN(C)CCNc1nc2ccccc2c2c1C(=O)c1ccccc1-2,0.367 µM (active),0.0923 µM (active),0.124 µM (active),0.191 µM (active),0.542 µM (active),0.318 µM (active),0.368 µM (active),0.471 µM (active),0.219 µM (active),0.137 µM (active),< 0.0432 µM (active),0.703 µM (active),0.538 µM (active),0.163 µM (active),0.01 µM (active),0.27 µM (active),0.225 µM (active),0.281 µM (active),0.564 µM (active),0.195 µM (active)
NC1CC(=O)c2c(I)sc(I)c21 (stereo not given),24.1 µM (inactive),3.27 µM (inactive),11.6 µM (inactive),20.2 µM (inactive),20 µM (inactive),19.7 µM (inactive),17.9 µM (inactive),21.4 µM (inactive),9.79 µM (inactive),11.6 µM (inactive),4.24 µM (inactive),44.5 µM (inactive),19.8 µM (inactive),20 µM (inactive),12.1 µM (inactive),18.7 µM (inactive),21 µM (inactive),46.2 µM (inactive),20.6 µM (inactive),20.6 µM (inactive)
Clc1ccc(C2C3COc4ccccc4C3=NN2c2ccccc2)cc1 (stereo not given),> 100 µM (inactive),2.38 µM (inactive),58.9 µM (inactive),29.4 µM (inactive),59.3 µM (inactive),22.8 µM (inactive),> 75.3 µM (inactive),99.5 µM (inactive),36.1 µM (inactive),5.05 µM (inactive),27.4 µM (inactive),> 100 µM (inactive),> 100 µM (inactive),> 100 µM (inactive),8.73 µM (inactive),> 67.1 µM (inactive),> 100 µM (inactive),> 69.7 µM (inactive),> 70.3 µM (inactive),> 69.5 µM (inactive)
COc1ccc2c(c1)N(CCC1CCCCN1C)c1ccccc1S2 (stereo not given) [OXYRIDAZINE],15.2 µM (inactive),10.1 µM (inactive),9.48 µM (inactive),5.12 µM (inactive),11 µM (inactive),12 µM (inactive),14.7 µM (inactive),3.58 µM (inactive),11.3 µM (inactive),14.7 µM (inactive),9.14 µM (inactive),16.3 µM (inactive),5.08 µM (inactive),10.8 µM (inactive),4.85 µM (inactive),10.8 µM (inactive),16 µM (inactive),10.8 µM (inactive),11.6 µM (inactive),15 µM (inactive)
